{"source": "patent US12605439B2", "about": "(priority 2017, dated 2026)", "key": {"SIIN specific T cell": {"test_system": "SIIN specific T cell", "assay_type": "cell-based"}, "LK^b cells": {"test_system": "LK^b cells", "assay_type": "cell-based"}}}
{"substance": "QLE SIINFEKL TEW (QLESIINFEKLTEW; OVA peptide used in the Examples) [Ext SIIN, extended model ovalbumin peptide with three flanking residues at both termini]", "values": [{"measurement": "activation of T cells compared to free peptide", "setting": "SIIN specific T cell", "value": "equivalent"}, {"measurement": "presentation of CD8 epitope compared to free peptide loading", "setting": "LK^b cells", "value": "lower"}]}
